Test results published in patent publication EP0318138A1, “Use of inorganic fluorides and nitrogen heterocyclics for enhancement of fluoride uptake in teeth” (SHISEIDO COMPANY LIMITED, priority 1987, dated 1989).

Assays:
[1] = Experiment 1: fluorine concentration in treated synthetic hydroxyapatite powder (microdiffusion analysis); settings: pH 4.5, 37°C 5 minutes, then calcifying solution 60 minutes
Experimental: (§1) Sodium fluoride and the heterocyclic compounds or the fatty acid ester (for comparison) listed in Tables 1 to 3 were added to an distilled water in the amounts shown in Tables 1 to 3, and the pH of the solution was adjusted to 4.5 with dilute hydrochloride or sodium hydroxide to form several preparations. Synthetic hydroxyapatite powder was incubated in each of the preparations at 37°C for 5 minutes and in a calcifying solution at 37°C for 60 minutes, and then filtrated and dried. The fluorine concentration in the treated synthetic hydroxyapatite powder was determined by microdiffusion analysis, and the amount of dissolved calcium after incubating the treated powder in an acetate buffer at 37°C for 60 minutes was measured. The inhibition (%) of decalcification was then calculated by the following equation, to evaluate the acid resistance thereof. [drawing 3]

[2] = Experiment 1: inhibition of decalcification (dissolved calcium from treated powder in acetate buffer); settings: acetate buffer 37°C 60 minutes
Experimental: as §1

[3] = Experiment 2: fluorine concentration in enamel of treated tooth by enamel biopsy; parameters: species or system bovine
Experimental: (§2) A fluoride compound, and pyridoxine hydrochloride, 3-pyridylcarbinol or thiamine hydrochloride were added to distilled water, in amounts shown in table 4 to produce preparations. A bovine tooth (which had been ground to remove 200 µm of the surface and expose the enamel surface) was incubated in each preparation at 37°C for 5 minutes and in a calcifying solution at 37°C for 60 minutes, and then washed with tap water and dried. The fluorine concentration in the enamel of the fluoride-treated bovine tooth was determined by enamel biopsy. […] Considerable decalcification. x ... No inhibition of decalcification.

[4] = Experiment 2: decalcification in acidic gelatin gel observed by microradiography; parameters: species or system bovine; settings: 4W in acidic gelatin gel
Experimental: as §2

## [F-].[Na+] [Sodium fluoride]
[1]; Sodium fluoride 0.2 %, pyridoxine hydrochloride 0 %
  Fluorine concentration (ppm): 4910 ppm
[1]; Table 2, preparations in distilled water
  Fluorine concentration (ppm): 4910 ppm
[1]; Table 3, preparations in distilled water
  Fluorine concentration (ppm): 4796 ppm
[2]; Sodium fluoride 0.2 %, pyridoxine hydrochloride 0 %, pH 4.5
  Inhibition of decalcification (%): 40.9%
[2]; Table 2, preparations pH 4.5
  Inhibition of decalcification (%): 40.9%
[2]; Table 3, preparations pH 4.5
  Inhibition of decalcification (%): 40.9%
[3]; 1st Etch
  F conc. in enamel: 498 ppm
[3]; 2nd etch
  F conc. in enamel: 309 ppm
[3]; 3rd etch
  F conc. in enamel: 222 ppm
[3]; 4th etch
  F conc. in enamel: 178 ppm
[3]; 5th etch
  F conc. in enamel: 139 ppm
[4]
  Inhibition of decalcification: ○
